The source of these data is patent publication US6403639B1, “2,3-dihydrobenzofuran derivatives” (Chugai Seiyaku Kabushiki Kaisha, priority 1997, dated 2002).

Read-outs that look alike come from different tables or passages of the source.

Experiment [1] relates to porcine kidney-derived LLC-PK1 cells. In words: Protective effect against cell injury of porcine kidney-derived LLC-PK1 cells (1), oxidized LDL-induced LDH leakage. It is filed as cell-based. Conditions: oxidized LDL 100 μg/ml, 6 hours; for % cytoprotection 1): test compounds added 16 hours before addition of oxidized LDL; for % cytoprotection 2): test compounds added immediately before addition of oxidized LDL. On the procedure:
For the purpose of evaluating in vitro cytoprotective effect of the compounds of the present invention, protective effect against cell injury of porcine kidney-derived LLC-PK1 cells (ATCC-CRL-13921) induced by oxidized low-density lipoprotein (oxidized LDL) was examined.
(§1) The oxidized LDL was prepared by placing 1 mg/ml of rabbit LDL in PBS (−) in the presence of 10 μM CuSO4 at 37° C. for 24 hours. Cell cultures were prepared by inoculating 1.25×10^4 cells/250 μl/well on a 48-well plate using M199 medium containing 3% FBS. Test compounds were dissolved or suspended in ethanol and added at a ratio of 1.25 μl/well 16 hours before or immediately before addition of the oxidized LDL to a concentration of 0.1, 1 or 10 μM in each well. The oxidized LDL was diluted twice with physiological saline and then added to cells at 62.5 μl/well to a concentration of 100 μg/ml and the cells were incubated for 6 hours after addition of the oxidized LDL. After the incubation, 162.5 μl of the culture medium was collected from each of the wells and measured for the lactate dehydrogenase (LDH) activity (Lactate Dehydrogenase (LD-L): SIGNA DIAGNOSTICS) which has leaked into the culture medium.
(§2) The cytoprotective effect was expressed as a % cytoprotection where the effect in wells containing the oxidized LDL but without any test compound is 0% and the effect in wells containing physiological saline in place of the oxidized LDL is 100%.

Another experiment relates to cultured mesangial cells. Kind of experiment: Protective effect against cell injury of cultured mesangial cells, oxidized LDL-induced LDH leakage. It is filed as cell-based, rats. On the procedure:
For the purpose of evaluating in vitro cytoprotective effect of the compounds of the present invention, protective effect against cell injury of cultured mesangial cells induced by oxidized low-density lipoprotein (LDL) was examined. The cells used were subcultures after 4 to 6 passages of the primary cultures of mesangial cells prepared from kidney of 4-week-old SD-strain male rats (Nippon Charles River Corp.).
The oxidized LDL was prepared by placing 1 mg/ml of rabbit LDL in PBS (−) in the presence of 10 μM CuSO4 at 37° C. for 24 hours. Cell cultures were prepared by inoculating 2.5×10^4 cells/250 μl/well on a 48-well plate using RPMI1640 medium containing 20% FBS. Immediately before addition of test compounds, the medium was replaced with RPMI1640 free from FBS. Test compounds were dissolved or suspended in ethanol and added at 1.25 μl/well 16 hours before or immediately before addition of the oxidized LDL to a concentration of 1, 3 or 10 μM in each well. Unlike Test example 1, the oxidized LDL was not diluted with physiological saline and added to cells at 25 μl/well to a concentration of 91 μg/ml and the cells were incubated for 8 hours after addition of the oxidized LDL. After the incubation, 150 μl of the culture medium was collected from each of the wells and measured for the lactate dehydrogenase activity (Lactate Dehydrogenase (LD-L): SIGMA DIAGNOSTICS) which has leaked in the culture medium.
as §2
On the technique in general: LDH leaks from cells whose membrane has failed.

Experiment [2] deals with porcine kidney-derived LLC-PK1 cells. Kind of experiment: Protective effect against cell injury of porcine kidney-derived LLC-PK1 cells (2), oxidized LDL-induced LDH leakage. It is filed as cell-based. As for the experimental part: as §1, §2
For the purpose of evaluating in vitro cytoprotective effect of the compounds of the present invention, protective effect against cell injury of porcine kidney-derived LLC-PK1 cells (ATCC-CRL-13921) induced by oxidized low-density lipoprotein (oxidized LDL) was examined in the same manner as in Test example 1.
Preparation of oxidized LDL and conditions for cell culture and addition of test compounds were the same as those in Test example 1, except that the oxidized LDL was not diluted with physiological saline and added to cells at 25 μl/well to a concentration of 91 μg/ml and the cells were incubated for 6 hours after addition of oxidized LDL. After the incubation, 150 μl of the culture medium was collected from each of the wells and measured for the lactate dehydrogenase (LDH) activity (Lactate Dehydrogenase (LD-L): SIGMA DIAGNOSTICS) which has leaked in the culture medium.

The mark [3] stands for this setting: Rattus norvegicus, Mesangial cell; 1 μM; test compounds added 16 hours before addition of oxidized LDL; oxidized LDL 91 μg/ml, 8 hours; read-out: % cytoprotection 1).
The mark [4] stands for this setting: Rattus norvegicus, Mesangial cell; 1 μM; test compounds added immediately before addition of oxidized LDL; oxidized LDL 91 μg/ml, 8 hours; read-out: % cytoprotection 2).
[5] abbreviates: Rattus norvegicus, Mesangial cell; 3 μM; test compounds added 16 hours before addition of oxidized LDL; oxidized LDL 91 μg/ml, 8 hours; read-out: % cytoprotection 1).
The mark [6] stands for this setting: Rattus norvegicus, Mesangial cell; 3 μM; test compounds added immediately before addition of oxidized LDL; oxidized LDL 91 μg/ml, 8 hours; read-out: % cytoprotection 2).
The mark [7] stands for this setting: Sus scrofa, LLC-PK1; 0.1 μM; test compounds added 16 hours before addition of oxidized LDL; oxidized LDL 91 μg/ml, 6 hours; read-out: % cytoprotection 1).
Setting [8] is: Sus scrofa, LLC-PK1; 0.1 μM; test compounds added immediately before addition of oxidized LDL; oxidized LDL 91 μg/ml, 6 hours; read-out: % cytoprotection 2).
Where [9] appears, read: Sus scrofa, LLC-PK1; 1 μM; test compounds added 16 hours before addition of oxidized LDL; oxidized LDL 91 μg/ml, 6 hours; read-out: % cytoprotection 1).
[10] abbreviates: Sus scrofa, LLC-PK1; 1 μM; test compounds added immediately before addition of oxidized LDL; oxidized LDL 91 μg/ml, 6 hours; read-out: % cytoprotection 2).
Setting [11] is: Sus scrofa, LLC-PK1; 10 μM; test compounds added 16 hours before addition of oxidized LDL; oxidized LDL 91 μg/ml, 6 hours; read-out: % cytoprotection 1).
The mark [12] stands for this setting: Sus scrofa, LLC-PK1; 10 μM; test compounds added immediately before addition of oxidized LDL; oxidized LDL 91 μg/ml, 6 hours; read-out: % cytoprotection 2).

Turning to `CC(C)(C)c1cc(O)c(C(C)(C)C)c2c1OCC2` [Example 1, 4,7-Di-t-butyl-5-hydroxy-2,3-dihydrobenzofuran], the “% cytoprotection 1)” value in experiment [1] (0.1 μM) is 92.7%; in experiment [1] (1 μM), 104.1%; in experiment [1] (10 μM), 100.5%. Further, the results for the “% cytoprotection 2)” value in experiment [1] (0.1 μM), in experiment [1] (1 μM) and in experiment [1] (10 μM) were 17.5%, 103.9% and 102.3%, respectively. Moreover, the inhibition at 1 µM worked out at 24.2 ± 9.3% in the experiment on cultured mesangial cells (setting [3]) and 40.3 ± 3.2% in the experiment on cultured mesangial cells (setting [4]). The inhibition at 3 µM turned out to be 78.2 ± 13.4% in the experiment on cultured mesangial cells (setting [5]) and 69.7 ± 13.3% in the experiment on cultured mesangial cells (setting [6]).
With `CC1Cc2c(c(C(C)(C)C)cc(O)c2C(C)(C)C)O1` (stereo not drawn) [Example 2, 4,7-Di-t-butyl-5-hydroxy-2-methyl-2,3-dihydrobenzofuran], the figures for the “% cytoprotection 1)” value in experiment [1] (0.1 μM), in experiment [1] (1 μM) and in experiment [1] (10 μM) were 24.4%, 101.2% and 101.0%, respectively. The “% cytoprotection 2)” value in experiment [1] (0.1 μM) worked out at 27.1%; in experiment [1] (1 μM), 101.5%; in experiment [1] (10 μM), 99.9%. Further, the inhibition at 1 µM with cultured mesangial cells (setting [3]) amounted to 35.6 ± 7.5%; in the experiment on cultured mesangial cells (setting [4]), 40.6 ± 8.2%. Further, the inhibition at 3 µM came out at 60.5 ± 6.2% in the experiment on cultured mesangial cells (setting [5]) and 53.1 ± 5.7% in the experiment on cultured mesangial cells (setting [6]).
`C=CC(C)c1c(O)c(C(C)(C)C)cc2c1CC1(CCCCCC1)O2` (stereo not drawn) [Example 12, 6-t-Butyl-5-hydroxy-4-(1-methyl-2-propenyl)-2,3-dihydrobenzofuran-2-spiro-1′-cycloheptane]: the inhibition at 0.1 µM in experiment [2] (setting [7]) was -15.5%; in experiment [2] (setting [8]), -8.4%. The inhibition at 1 µM was 77.9% in experiment [2] (setting [9]), 79.4% in experiment [2] (setting [10]), 11.8 ± 2.6% in the experiment on cultured mesangial cells (setting [3]) and 17.4 ± 4% in the experiment on cultured mesangial cells (setting [4]). For the same compound, the inhibition at 10 µM in experiment [2] (setting [11]) and in experiment [2] (setting [12]) was 102% throughout. Besides, the inhibition at 3 µM with cultured mesangial cells (setting [5]) worked out at 37.9 ± 8.3%; in the experiment with cultured mesangial cells (setting [6]), 42.8 ± 3.7%.
For the compound `CCc1c(O)c(C(C)(C)C)cc2c1CC1(CCCCCC1)O2` [Example 14-(2), 6-t-Butyl-4-ethyl-5-hydroxy-2,3-dihydrobenzofuran-2-spiro-1′-cycloheptane], the inhibition at 0.1 µM was -14.3% in experiment [2] (setting [7]) and -13.9% in experiment [2] (setting [8]). The inhibition at 1 µM in experiment [2] (setting [9]) stood at 103%; in experiment [2] (setting [10]), 99.4%; in the experiment with cultured mesangial cells (setting [3]) it was 6.6 ± 8.4%; in the experiment with cultured mesangial cells (setting [4]), 23.1 ± 1.2%. Moreover, the inhibition at 10 µM in experiment [2] (setting [11]) was determined as 104%; in experiment [2] (setting [12]) it was 105%. Also, the results for the inhibition at 3 µM in the experiment with cultured mesangial cells (setting [5]) and in the experiment on cultured mesangial cells (setting [6]) were 52.7 ± 14.3% and 45.6 ± 1.8%, respectively.
Consider `CC1(C)Cc2cc(O)c(C(C)(C)C)cc2O1` [Example 5, 6-t-Butyl-5-hydroxy-2,2-dimethyl-2,3-dihydrobenzofuran], for which the figures for the “% cytoprotection 1)” value in experiment [1] (0.1 μM), in experiment [1] (1 μM) and in experiment [1] (10 μM) were 77.6%, 103.4% and 100.6%, respectively. Besides, the results for the “% cytoprotection 2)” value in experiment [1] (0.1 μM), in experiment [1] (1 μM) and in experiment [1] (10 μM) were 18.2%, 100.8% and 101.7%, respectively. For the same compound, the inhibition at 1 µM in the experiment on cultured mesangial cells (setting [3]) came to 34.2 ± 4.5%; in the experiment on cultured mesangial cells (setting [4]), 11.3 ± 2.4%. Moreover, the inhibition at 3 µM worked out at 42.3 ± 4.7% in the experiment on cultured mesangial cells (setting [5]) and 28.9 ± 2% in the experiment with cultured mesangial cells (setting [6]).
Consider `CC(C)Cc1c(O)c(C(C)(C)C)cc2c1CC1(CCCCCC1)O2` [Example 11, 6-t-Butyl-5-hydroxy-4-(2-methylpropyl)-2,3-dihydrobenzofuran-2-spiro-1′-cycloheptane], for which the inhibition at 0.1 µM in experiment [2] (setting [7]) was -2.7%; in experiment [2] (setting [8]) it was -20.4%. Moreover, the inhibition at 1 µM in experiment [2] (setting [9]) was 53.4%; in experiment [2] (setting [10]), 88.7%; with cultured mesangial cells (setting [3]), -3.5 ± 9.1%; with cultured mesangial cells (setting [4]) it was 4.8 ± 5.1%. Besides, the inhibition at 10 µM in experiment [2] (setting [11]) amounted to 102%; in experiment [2] (setting [12]), 103%. Further, the inhibition at 3 µM in the experiment on cultured mesangial cells (setting [5]) turned out to be 13.8 ± 7.8%; with cultured mesangial cells (setting [6]), 41.3 ± 1%.
